Assay [1] can be described thus: Ischemic, post-myocardial infarction (LAD ligation) cardiomyopathy model. Type of assay: in vivo, mouse. The source says:
FIG. 9. A61603 rescues ischemic, post-myocardial infarction (MI) cardiomyopathy. Mice had echo 4 weeks after LAD ligation (MI), at which time they were randomized to treatment with A61603, at the same low dose, or vehicle.
FIG. 10. A61603 in ischemic, post-MI cardiomyopathy improves growth and protection, and reduces fibrosis. Values are normalized to mice treated with vehicle. Mice treated with A61603 had smaller atria, less fibrosis, higher fractional shortening (FS), smaller left ventricle end diastolic diameter (LVEDD), and larger myocyte size in the surviving heart (MC CSA). The size of the MI was unchanged, as expected because treatment started 4 weeks after LAD ligation, by which time the MI had healed.
Studies in mice looking at alpha-1 agonist therapy, using A61603, in a model of heart failure and cardiomyopathy due to myocardial infarction (heart attack). We used an animal model of myocardial infarction to test whether the alpha-1A agonist A61603 could rescue (e.g. treat) cardiomyopathy, when treatment was initiated at some time after injury (e.g. after the acute period was complete). Rescue mimics what is seen commonly in the clinic, where patients are admitted with HF, caused by a cardiomyopathy that has been present for months or years. This model was a model of ischemic, post-myocardial infarction (MI) cardiomyopathy. Ischemic heart disease caused by coronary atherosclerosis is extremely common and ischemic and overload cardiomyopathies associated with these diseases comprise the largest group of patients with HF. We used a mouse model of coronary ligation to cause MI. The mouse coronary ligation was permanent, however, patients typically have some form of reperfusion (e.g. angioplasty). We used a mouse model where the MI is healed completely, which is typical for patients admitted with HF late after MI. A61603 treatment rescued (e.g treated) the cardiomyopathy, as measured by heart function (FIG. 9A-B).
The improvement in function caused by A61603 after MI was again due to direct effects on ardiac muscle cells (FIG. 10). In this case, the effect was to increase the size of muscle cells in the surviving heart wall, helping restore the total amount of contracting heart muscle. There was also less fibrosis than control. The smaller weight of the atria indicates lower pressures within the left ventricle, a beneficial functional outcome, and the smaller diameter of the left ventricle indicates less cardiac enlargement, also a beneficial outcome.

Assay [2] in a line: Doxorubicin cardiomyopathy model in adult mice. Type of assay: in vivo, mouse. As to the method: FIG. 6. A61603 prevents doxorubicin cardiomyopathy. DOX was given to adult mice in a single intraperitoneal dose of 25 mg/kg. A61603 was infused subcutaneously (osmotic minipump) for 1 week (top left). We monitored mouse survival over the week, and at the end of 1 week measured heart cell damage and function.
In summary, the alpha-1A agonist A61603 is protective and adaptive in cardiac muscle cells in vitro and in vivo. […] A61603 protects against mortality and cardiomyopathy, by preventing cell death and fibrosis. We chose a model of cardiomyopathy caused by a cancer drug, the anthracycline doxorubicin (DOX). Cancer drug cardiotoxicity is a common and growing problem. We used the same protocol that tested A61603 BP and signaling effects (FIG. 5).

Assay [3] relates to α1A receptors. To be noted: cited from earlier work.
Assay [4] in a line: Right ventricle cardiomyopathy in pulmonary hypertension (bleomycin) model. Type of assay: in vivo, mouse. The text has this:
FIG. 11. A61603 reduces right ventricle (RV) cardiomyopathy in pulmonary hypertension. Mice had bleomycin instilled into the trachea and treatment with A61603 or vehicle. […] Mice with the alpha-1A knocked out did worse (α1ABKO).
Studies in mice looking at alpha-1 agonist therapy, using A61603, in a model of right ventricular failure from pulmonary hypertension. Failure of the right ventricle (RV) is a serious consequence of HF due to disease of the left ventricle (LV), and is also seen as an isolated problem, e.g. in lung disease (e.g. lung fibrosis), where treatment is extremely limited. Experiments were conducted with A61603 therapy in a mouse model of RV cardiomyopathy caused by pulmonary hypertension, which in turn was caused by lung fibrosis. Installation of bleomycin into the lung, caused fibrosis and secondary pulmonary hypertension and RV failure. Mice were treated continuously with A61603 or vehicle.

SMILES strings stand for the structures.

Turning to `CS(=O)(=O)Nc1c(O)ccc2c1CCCC2C1=NCCN1` (centres unmarked) [A61603, N-[1-(4,5-dihydro-1H-imidazol-2-yl)-6-hydroxy-tetralin-5-yl]methanesulfonamide], in assay [1] (post-MI, normalized to vehicle), the atria size entry is “smaller atria”, the fibrosis entry is “less fibrosis”, the “left ventricle end diastolic diameter (LVEDD)” value is listed as “smaller” and the “myocyte size in the surviving heart (MC CSA)” value was “larger”. Further, the “fractional shortening (FS)” value in assay [1] (post-MI, normalized to vehicle, FIG. 10) is listed as “higher”. Also, in assay [1] (post-MI, treatment started 4 weeks after LAD ligation), the “size of the MI” value is listed as “unchanged”. For the same compound, the fractional shortening entry in assay [1] (treatment started 4 weeks after LAD ligation (MI), low dose, vs vehicle) is “stayed the same or improved”. In assay [2] (DOX 25 mg/kg ip single dose, A61603 sc infusion 1 week, vs vehicle), the “survival after DOX” value is reported as “markedly improved”. Moreover, in assay [2] (after DOX, end of 1 week), the “cell death by apoptosis (caspase 3/7 activity and TUNEL staining)” value was “improved”; the “cell death by necrosis (serum CK, creatine kinase)” value is reported as “improved”; the “indices of myocardial fibrosis” value is “improved”. Moreover, in assay [2] (alpha-1A KO mice after DOX), the “protective effect on survival in alpha-1A knockout (KO)” value is listed as “lost”. The “heart function by echocardiography (fractional shortening)” value in assay [2] (surviving mice, end of 1 week) was “improved”. Also, the “potency at α1A receptors relative to α1B or α1D sites” value in assay [3] (Knepper et al. (1995)) is listed as “at least 35 fold”. The “potency as α1A AR agonist relative to phenylephrine, methoxamine and midodrine” value in assay [3] is listed as “more potent”. For the same compound, the “RV failure (RV weight normalized to body weight)” value in assay [4] (bleomycin into trachea, A61603 vs vehicle) is “reduced or prevented RV failure”. Further, the “function of RV muscle taken from treated mice, studied in vitro” value in assay [4] (bleomycin model) is “better function”.

Values taken from patent US9364462B2, “Alpha-1-adrenergic receptor agonist therapy” (The Regents of the University of California, priority 2012, dated 2016).
